Earlier results on one compound are cited in EP2566451B1, “PHARMACEUTICAL COMPOSITIONS COMPRISING CEFDITOREN PIVOXIL” (Bilgic, Mahmut, priority 2010, dated 2011).

The conditions of this data set: in water; stated in the background section, approximately.

As for `CO/N=C(\C(=O)N[C@@H]1C(=O)N2C(C(=O)OCOC(=O)C(C)(C)C)=C(/C=C\c3scnc3C)CS[C@H]12)c1csc(N)n1` [Cefditoren pivoxil, (6R,7R)-pivaloyloxymethyl 7-[(Z)-2-(2-aminothiazol-4-yl)-2-(methoxyimino)acetamido]-3-[(Z)-2-(4-methylthiazol-5-yl)vinyl]-8-oxo-5-thia-1-azabicyclo[4.2.0]oct-2-ene-2-carboxylate], the water solubility entry is “less than 1 mg/ml”.
